Test results: US10973922B2, “Glycoprotein-toxic payload conjugates” (GLYKOS FINLAND OY, priority 2013, dated 2021)
pIC50: −log10 of the molar value. Where a SMILES comes first, the peptide text is derived from it. [ ]: non-standard residue; d: D form. Dolaproine = CO[C@@H]([C@@H]1CCCN1)[C@@H](C)C(=O)O; Dil = CC[C@H](C)[C@H](NC)[C@@H](CC(=O)O)OC; NMeV = CN[C@H](C(=O)O)C(C)C

Tests used:
[1] = test system: SKOV-3 ovarian cancer cell; assay: In vitro cytotoxicity of dolastatin derivatives (PrestoBlue cell viability); assay type: cell-based, Human; settings: for pIC50: concentration range wherein SKOV-3 cell viability falls to 50%, 96 h, measured range 1 nM-10 μM; for cytotoxicity compared to 1 (MMAF): SKOV-3, applied to cell culture medium; for cytotoxicity compared to 2 (monomethyldolastatin 10): SKOV-3
Protocol: Human ovarian cancer cell line SKOV-3 was from the ATCC (Manassas, Va., USA). The cells were grown according to the manufacturer's recommendations. Log phase cultures were collected and 5000 cells/well were seeded onto 96-well plates and incubated for 24 h. Serial dilutions of test molecules from a stock solution of 100 μM in 10% DMSO were made in cell culture medium, added to cells (maximum concentration of dimethylsulphoxide was 1%) and cultures were incubated further for 96 h. Cell viability was evaluated using PrestoBlue cell viability reagent (Life Technologies, Carlsbad, Calif., USA) according to the manufacturer's instructions. Cells were incubated for 2 h, and dye reduction was measured by absorbance at 570 nm. The compounds were assayed 1-2 times in triplicate.
Results of an exemplary assay are shown in FIG. 1, in which compound numbering is according to Example 1. The results are expressed in Table 1 as IC50 values of the analyzed derivatives.

[2] = Hydrophilicity by reverse-phase HPLC elution; assay type: physicochemical; settings: C-18 reverse-phase column, eluted at lower ACN concentration
Excerpt: The products were purified by Äkta purifier 10 (GE Healthcare) HPLC instrument with Gemini-NX-5u C-18 reverse-phase column (4.6×250 mm, 110 Å (Phenomenex)) eluted with ACN gradient in aqueous ammonium hydrogen carbonate or aqueous trifluoroacetic acid.

**Q.** With C#CCCN(C)C(C(=O)NC(C(=O)N(C)C(C(C)CC)C(CC(=O)N1CCCC1C(OC)C(C)C(=O)NC(Cc1ccccc1)C(=O)O)OC)C(C)C)C(C)C (stereo not drawn) [Compound 6, N-(3-butynyl)-MMAF] as the compound, how does the pIC50 ([1]; Homo sapiens, SK-OV-3) read?
**A.** > 9.00

**Q.** What about the “cytotoxicity compared to 1 (MMAF)” value [1] of the same compound?
**A.** more cytotoxic

**Q.** With CCC(C)C(C(CC(=O)N1CCCC1C(OC)C(C)C(=O)NC(Cc1ccccc1)C(=O)O)OC)N(C)C(=O)C(NC(=O)C(C(C)C)N(C)CCC(O)C(O)C(O)CO)C(C)C [Compound 5, N-(2-deoxy-D-glucosyl)-MMAF] as the compound, how does the “hydrophilicity compared to MMAF (1) and N-(3-butynyl)-MMAF (6)” value [2] read?
**A.** more hydrophilic

**Q.** What about the pIC50 ([1]; Homo sapiens, SK-OV-3) of the same compound?
**A.** 6.00

**Q.** What about the “cytotoxicity compared to 1 (MMAF)” value [1] of the same compound?
**A.** equally or only slightly less cytotoxic

**Q.** For CCC(C)C(C(CC(=O)N1CCCC1C(OC)C(C)C(=O)NC(Cc1ccccc1)C(=O)O)OC)N(C)C(=O)C(NC(=O)C(C(C)C)N(C)CC(O)C(O)C(OC1OC(CO)C(O)C(OC2(C(=O)O)CC(O)C(NC(C)=O)C(C(O)C(O)CO)O2)C1O)C(O)CO)C(C)C [Compound 11, N-{4-O-[3-O-(α-N-acetylneuraminyl)-β-D-galactopyranosyl]-D-glucosyl}-MMAF], which “cytotoxicity compared to 1 (MMAF)” value [1] is on record?
**A.** less cytotoxic

**Q.** What about the pIC50 [1] of the same compound?
**A.** < 5.00

**Q.** With CCC(C)C(C(CC(=O)N1CCCC1C(OC)C(C)C(=O)NC(Cc1ccccc1)C(=O)O)OC)N(C)C(=O)C(NC(=O)C(C(C)C)N(C)CC(O)C(O)C(OC1OC(CO)C(OC2OC(CO)C(O)C(O)C2O)C(O)C1O)C(O)CO)C(C)C [Compound 10, N-{4-O-[4-O-(α-D-galactopyranosyl)-β-D-galactopyranosyl]-D-glucosyl}-MMAF] as the compound, how does the pIC50 ([1]; Homo sapiens, SK-OV-3) read?
**A.** 5.00 to 6.00

**Q.** With CN[C@H](C(=O)N[C@H](C(=O)N(C)[C@@H](C(C)C)[C@@H](CC(=O)N1CCC[C@H]1[C@H](OC)[C@@H](C)C(=O)N[C@@H](Cc1ccccc1)c1nccs1)OC)C(C)C)C(C)C [Compound 2, monomethyldolastatin 10, reference compound] as the compound, how does the pIC50 [1] read?
**A.** > 9.00

**Q.** With CCC(C)C(C(CC(=O)N1CCCC1C(OC)C(C)C(=O)NC(Cc1ccccc1)C(=O)O)OC)N(C)C(=O)C(NC(=O)C(C(C)C)N(C)CC(O)C(O)C(O)C(O)COC1OC(CO)C(O)C(O)C1O)C(C)C [Compound 8, N-[6-O-(β-D-galactopyranosyl)-D-galactosyl]-MMAF] as the compound, how does the pIC50 ([1]; Homo sapiens, SK-OV-3) read?
**A.** 5.00 to 6.00

**Q.** And the “cytotoxicity compared to 1 (MMAF)” value [1]?
**A.** less cytotoxic

**Q.** With “N-(6-azido-6-deoxy-D-galactosyl)-MMAF [Compound 4]” as the compound, how does the pIC50 [1] read?
**A.** 6.00 to 7.00

**Q.** With CCC(C)C(C(CC(=O)N1CCCC1C(OC)C(C)C(=O)NC(Cc1ccccc1)c1nccs1)OC)N(C)C(=O)C(NC(=O)C(C(C)C)N(C)CC(O)C(O)C(O)C(O)CN=[N+]=[N-])C(C)C [Compound 13, N-(6-azido-6-deoxy-D-galactosyl)-dolastatin 10] as the compound, how does the pIC50 ([1]; Homo sapiens, SK-OV-3) read?
**A.** > 9.00

**Q.** And the “cytotoxicity compared to 2 (monomethyldolastatin 10)” value [1]?
**A.** equally or only slightly less cytotoxic

**Q.** With “N-(6-O-propargyl-D-galactosyl)-MMAF [Compound 3]” as the compound, how does the pIC50 [1] read?
**A.** 5.00 to 7.00

**Q.** Which results are given for CCC(C)C(C(CC(=O)N1CCCC1C(OC)C(C)C(=O)NC(Cc1ccccc1)C(=O)O)OC)N(C)C(=O)C(NC(=O)C(C(C)C)N(C)C(=O)CCCC(=O)O)C(C)C (stereo not drawn) [Compound 14b, N-glutaryl-MMAF]?
**A.** pIC50 ([1]; Homo sapiens, SK-OV-3): 6.00 to 7.00; cytotoxicity compared to 2 (monomethyldolastatin 10) [1]: equally or only slightly less cytotoxic

**Q.** With CC[C@H](C)[C@@H]([C@@H](CC(=O)N1CCC[C@H]1[C@H](OC)[C@@H](C)C(=O)N[C@@H](Cc1ccccc1)C(=O)O)OC)N(C)C(=O)[C@@H](NC(=O)[C@@H](NC)C(C)C)C(C)C [Compound 1, Monomethylauristatin F, reference compound] (H-[NMeV]V[Dil][Dolaproine]F-OH) as the compound, how does the pIC50 [1] read?
**A.** 6.00 to 7.00
